In ChEMBL document CHEMBL5625264, “Identification of (4-chlorophenyl)(5-hydroxynaphtho[1,2-b]furan-3-yl)methanone as novel COX-2 inhibitor with analgesic profile” (Bioorg Med Chem Lett, 2024):
Activity calls are given as the source filed them. The rule behind the calls is not given here.

Assays:
[1] = tested on: Mus musculus; assay: Analgesic activity in ip dosed CFA-induced ICR mouse model of chronic inflammatory pain pretreated with CFA for 3 days followed by compound administration and measured at 30 to 300 min by pain behavior test; assay type: functional, organism-based; conditions: time 30-300 min
[2] = tested on: Mus musculus; assay: Analgesic activity in ip dosed formalin-induced ICR mouse model of acute inflammatory pain; assay type: functional, organism-based

Structure (SMILES) | Activity [1] | Activity [2]
O=C(c1ccc(Cl)cc1)c1coc2c1cc(O)c1ccccc12 | Active | Active
O=C(Nc1ccccc1NC(=O)c1ccc2c(c1)OCO2)c1ccc2c(c1)OCO2 | Active | –
NS(=O)(=O)c1ccc(-c2sncc2-c2ccc(F)cc2)cc1 | Active | Active
